The record followed here is patent US6509335B1, “Benzoxazinoes/benzothiazinones as serine protease inhibitors” (Warner-Lambert Company, priority 1998, dated 2003).

One series relates to human trypsin. Kind of series: Determination of trypsin IC50 (chromogenic substrate S2222). In kind it is biochemical. As for the experimental part:
The ability of compounds to act as inhibitors of human trypsin catalytic activity is assessed by determination of that concentration of test substance that inhibits by 50% (IC50) the ability of human trypsin to cleave the chromogenic substrate S2222 (N-Bz-L-Ile-L-Glu-L-Gly-L-Arg-p-nitroanilide. HCl, DiaPharma). Typically, 145 μL human trypsin (0.5 nM final) in 10 mM HEPES, 150 mM NaCl, 0.1% BSA, and 5 μL of the test substance in DMSO (2% final) are incubated for 60 minutes at room temperature. Following preheating to 37° C. for 5 minutes, to this mixture is added 100 μL of S2222 in HBSA buffer (100 μM final), and the velocity of S2222 hydrolysis is determined at 37° C. by measuring the optical density at OD 405 nm every 10 seconds over 5 minutes using a ThermoMax® Kinetic Microplate Reader.

In series [1] the target is T1, human factor Xa (Homo sapiens, UniProt P00742).
T1 construct: human factor Xa (1 nM final, Enzyme Research Laboratories); purchased Enzyme Research Laboratories
T1 sequence (P00742 235-488 limits assumed): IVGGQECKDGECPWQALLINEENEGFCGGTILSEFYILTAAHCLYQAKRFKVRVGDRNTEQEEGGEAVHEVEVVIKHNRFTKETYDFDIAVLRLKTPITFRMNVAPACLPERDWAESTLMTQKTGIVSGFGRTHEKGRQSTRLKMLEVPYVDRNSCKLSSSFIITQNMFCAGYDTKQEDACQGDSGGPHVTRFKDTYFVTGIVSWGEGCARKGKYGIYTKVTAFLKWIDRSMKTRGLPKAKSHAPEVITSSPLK
T1 sequence (P00742 41-179 limits assumed): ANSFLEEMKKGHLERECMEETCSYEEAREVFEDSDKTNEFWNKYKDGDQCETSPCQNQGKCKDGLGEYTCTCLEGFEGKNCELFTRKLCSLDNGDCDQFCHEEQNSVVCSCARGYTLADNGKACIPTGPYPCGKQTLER
Put plainly: Determination of factor Xa IC50 (chromogenic substrate S2765). It counts as biochemical. The procedure:
The ability of compounds to act as inhibitors of human factor Xa catalytic activity is assessed by determination of that concentration of test substance that inhibits by 50% (IC50) the ability of human factor Xa to cleave the chromogenic substrate S2765 (N-CBz-D-Arg-L-Gly-L-Arg-p-nitroanilide. 2HCl, DiaPharma). Typically, 145 μL human factor Xa (1 nM final, Enzyme Research Laboratories) in 10 mM HEPES, 150 mM NaCl, 0.1% BSA, pH 7.4 (HBSA buffer), and 5 μL of test substance in DMSO (2% final) are incubated for 60 minutes at room temperature. Following preheating to 37° C. for 5 minutes, to this mixture is added 100 μL of S2765 (400 μM final) in HBSA buffer. The velocity of S2765 hydrolysis is determined at 37° C. by measuring the initial rate of change of the optical density at OD405 nm every 10 seconds for 5 minutes using a ThermoMax® Kinetic Microplate Reader.

In series [2] the target is T2, human tissue factor/factor VIIa complex (Homo sapiens, UniProt P08709).
T2 construct: 50 μL human factor VIIa (Enzyme Research Laboratories); purchased Enzyme Research Laboratories (factor VIIa); American Diagnostica (tissue factor)
T2 sequence (P08709 213-466 limits assumed): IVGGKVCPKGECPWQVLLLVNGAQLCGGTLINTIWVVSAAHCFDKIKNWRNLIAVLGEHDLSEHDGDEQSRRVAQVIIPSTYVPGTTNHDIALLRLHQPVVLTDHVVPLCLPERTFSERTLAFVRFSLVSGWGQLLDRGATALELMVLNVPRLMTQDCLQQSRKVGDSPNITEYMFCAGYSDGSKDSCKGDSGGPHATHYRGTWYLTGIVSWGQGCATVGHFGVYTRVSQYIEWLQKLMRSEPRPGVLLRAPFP
T2 sequence (P08709 61-212 limits assumed): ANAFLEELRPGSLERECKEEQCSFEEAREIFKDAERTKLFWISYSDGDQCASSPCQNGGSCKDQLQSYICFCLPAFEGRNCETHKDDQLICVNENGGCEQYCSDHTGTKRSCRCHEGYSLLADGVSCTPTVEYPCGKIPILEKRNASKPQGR
T2 sequence (P13726 33-295 partner): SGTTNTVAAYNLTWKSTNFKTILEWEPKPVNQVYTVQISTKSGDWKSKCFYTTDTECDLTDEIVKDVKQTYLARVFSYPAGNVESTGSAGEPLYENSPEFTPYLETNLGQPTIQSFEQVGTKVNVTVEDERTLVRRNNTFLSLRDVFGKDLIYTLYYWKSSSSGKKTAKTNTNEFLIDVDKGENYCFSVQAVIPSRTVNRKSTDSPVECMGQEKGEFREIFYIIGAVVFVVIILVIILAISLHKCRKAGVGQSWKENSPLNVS
Kind of series: Determination of tissue factor/factor VIIa inhibition (Spectrozyme VIIa). It counts as biochemical. As to conditions: read-out: VIIa % inhib. @ 100 μM. The procedure: The ability of compounds to act as inhibitors of the catalytic activity of human tissue factor/factor VIIa complex is assessed by determination of that concentration of test substance that inhibits by 50% (IC50 the ability of a complex of human recombinant tissue factor/factor VIIa to cleave the chromogenic substrate Spectrozyme VIIa (CH3SO2-D-CHA-Arg-pNA*AcOH, American Diagnostica). Typically, 50 μL human factor VIIa (Enzyme Research Laboratories) is incubated for 10 minutes as a 1:1 mixture (5 nM final each) with 95 μL recombinant human tissue factor (American Diagnostica) in a modified HBSA buffer (10 mM Hepes, 5 mM CaCl2, 0.1% BSA, pH 8.0). Then 5 μL of the test substance in DMSO (2% final) is added and incubated for 60 minutes at room temperature. Following preheating to 37° C. for 5 minutes, to this mixture is added 100 μL of Spectrozyme VIIa (500 μM final) in modified HBSA, and the velocity of Spectrozyme VIIa hydrolysis is determined at 37° C. by measuring the optical density at an OD405 nm every 10 seconds over 5 minutes using a ThermoMax® Kinetic Microplate Reader.

Another series deals with rabbit. Put plainly: Rabbit veno-venous shunt model of thrombosis. In kind it is in vivo. The procedure: In that model, a plastic shunt which contains cotton thread was inserted into abdominal vena cava and thrombus developed inside the shunt under control conditions. The end points of the experiment are the time to occlusion (TTO) and thrombus weight. […] Three doses have been tested in a total of 15 rabbits (5 rabbits in each group): 30 μg/kg+1 μg/kg/min, 60 μg/kg+2 μg/kg/min, and 90 μg/kg+3 μg/kg/min. […] The net thrombus weight was reduced from 56.4±4.3 to 21.3±7.8 mg in that group.

The test system of series [3] is pooled plasma from rabbits. Kind of series: In vitro diluted prothrombin time (dPT) assay, rabbit plasma. As to conditions: for concentration that causes 2-fold prolongation of baseline dPT: 2X; for concentration that causes 5-fold prolongation of baseline dPT: 5X; for concentration that causes 10-fold prolongation of baseline dPT: 10X. The procedure: (§1) Rat, rabbit, dog, and human blood (typically 1.8 mL) was collected and added to a sodium citrate solution (3.8%) to afford a 1:10 dilution. After centrifugation (2000 g for 10 minutes), the blood plasma was stored at −70° C. to 0° C. […] […] Fibrin formation and the time required for a clot to form were determined using an automated ST4 Clot Detection System in duplicate.

The subject of another series is pooled plasma from dogs. Put plainly: In vitro diluted prothrombin time (dPT) assay, dog plasma. As to conditions: for concentration that causes 2-fold prolongation of baseline dPT: 2X; for concentration that causes 5-fold prolongation of baseline dPT: 5X; for concentration that causes 10-fold prolongation of baseline dPT: 10X. The procedure: as §1
Series [4] concerns pooled plasma from human volunteers. Put plainly: In vitro diluted prothrombin time (dPT) assay, human plasma. As to conditions: for concentration that causes 2-fold prolongation of baseline dPT: 2X; for concentration that causes 5-fold prolongation of baseline dPT: 5X; for concentration that causes 10-fold prolongation of baseline dPT: 10X. As for the experimental part:
as §1

Another series addresses T3, human thrombin (Homo sapiens, UniProt P00734).
T3 construct: regulates the generation of thrombin from its zymogen prothrombin; purchased Enzyme Research Laboratories
Put plainly: Determination of thrombin IC50 (chromogenic substrate Chromozym TH). In kind it is biochemical. As for the experimental part:
The ability of compounds to act as inhibitors of human thrombin catalytic activity is assessed by determination of that concentration of test substance that inhibits by 50% (IC50) the ability of human thrombin to cleave the chromogenic substrate Chromozym TH (Tosyl-Gly-Pro-Arg-pNA*Ac, Boehringer Mannheim). Typically, 145 μL human thrombin (0.75 nM, Enzyme Research Laboratories) in a HPB buffer (10 mM HEPES, 100 mM NaCl, 0.05% BSA, 0.1% PEG-8000, pH 7.4) and 5 μL of test substance in DMSO (2% final) are incubated for 60 minutes at room temperature. Following preheating to 37° C. for 5 minutes, to this mixture is added 100 μL of Chromozym TH (24 μM final) in HPB buffer. The velocity of Chromozym TH hydrolysis is determined at 37° C. by measuring the initial rate of change of the optical density at OD 405 nm every 10 seconds for 5 minutes using a ThermoMax® Kinetic Microplate Reader.

For series [5], the target named is T4, human prothrombinase (PTase) complex (Homo sapiens, UniProt P00742).
T4 construct: 2.5 pM human factor Xa (Enzyme Research Laboratories); purchased Enzyme Research Laboratories
T4 sequence (P00742 235-488 limits assumed): as the sequence (P00742 235-488 limits assumed) above
T4 sequence (P00742 41-179 limits assumed): as the sequence (P00742 41-179 limits assumed) above
T4 sequence (P12259 29-737 partner limits assumed): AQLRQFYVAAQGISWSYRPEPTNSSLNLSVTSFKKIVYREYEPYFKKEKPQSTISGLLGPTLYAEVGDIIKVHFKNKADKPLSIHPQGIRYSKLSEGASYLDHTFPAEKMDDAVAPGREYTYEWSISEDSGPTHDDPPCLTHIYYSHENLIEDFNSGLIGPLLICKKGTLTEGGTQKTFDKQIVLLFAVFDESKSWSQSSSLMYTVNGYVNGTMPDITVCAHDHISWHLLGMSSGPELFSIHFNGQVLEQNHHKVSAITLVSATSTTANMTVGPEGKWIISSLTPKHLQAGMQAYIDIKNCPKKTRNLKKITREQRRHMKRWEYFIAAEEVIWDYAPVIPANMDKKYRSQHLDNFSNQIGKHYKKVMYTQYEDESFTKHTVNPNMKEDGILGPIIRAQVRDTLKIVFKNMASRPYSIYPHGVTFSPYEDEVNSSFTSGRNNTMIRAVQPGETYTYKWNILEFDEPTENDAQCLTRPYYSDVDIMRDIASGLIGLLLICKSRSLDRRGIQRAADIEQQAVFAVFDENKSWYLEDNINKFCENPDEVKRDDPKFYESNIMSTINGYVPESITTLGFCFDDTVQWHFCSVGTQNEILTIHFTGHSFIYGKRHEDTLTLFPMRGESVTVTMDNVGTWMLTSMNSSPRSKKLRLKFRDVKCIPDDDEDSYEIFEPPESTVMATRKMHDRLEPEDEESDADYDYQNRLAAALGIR
T4 sequence (P12259 1574-2224 partner limits assumed): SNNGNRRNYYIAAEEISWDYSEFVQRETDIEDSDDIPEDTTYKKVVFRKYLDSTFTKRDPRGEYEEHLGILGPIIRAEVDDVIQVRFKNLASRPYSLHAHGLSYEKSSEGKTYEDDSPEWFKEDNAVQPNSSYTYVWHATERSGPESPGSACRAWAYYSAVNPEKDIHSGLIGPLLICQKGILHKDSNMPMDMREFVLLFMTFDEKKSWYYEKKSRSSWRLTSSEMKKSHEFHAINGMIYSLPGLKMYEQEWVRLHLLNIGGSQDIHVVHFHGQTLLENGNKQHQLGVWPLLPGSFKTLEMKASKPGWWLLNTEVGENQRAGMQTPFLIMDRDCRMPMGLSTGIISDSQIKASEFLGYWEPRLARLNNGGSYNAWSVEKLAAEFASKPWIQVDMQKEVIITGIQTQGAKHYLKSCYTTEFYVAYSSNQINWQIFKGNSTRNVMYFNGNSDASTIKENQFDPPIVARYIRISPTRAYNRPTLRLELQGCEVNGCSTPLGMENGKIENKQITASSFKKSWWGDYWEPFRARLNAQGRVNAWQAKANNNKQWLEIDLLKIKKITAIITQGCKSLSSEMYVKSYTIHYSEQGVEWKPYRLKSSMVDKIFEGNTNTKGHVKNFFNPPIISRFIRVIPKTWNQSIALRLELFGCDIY
Put plainly: In vitro assay for human prothrombinase. It counts as biochemical. As to conditions: PTase activity expressed by thrombin activity. As for the experimental part: For determination of IC50 (PTase) of the compounds of the invention, PTase activity was expressed by thrombin activity.
PTase reaction was performed in 100 μL of mixture containing PTase (20 μM) PCPS (Avanti Polar Lipids following a procedure modified from Barenholz et al., Biochemistry, 1977;16:2806-2810) in a 30:70 ratio, 2.5 nM human factor Va (Enzyme Research Laboratories) and 2.5 pM human factor Xa (Enzyme Research Laboratories) in modified HEPES buffer (10 mM Hepes, 150 mM NaCl, 0.1% PEG-8000, 0.05% BSA, 2.5 mM CaCl2, pH 7.4), 3 μM human prothrombin (Enzyme Research Laboratories) and varied concentrations of the test compounds (1 nM to 100 μM in DMSO, 2% final). Reaction was started by co-incubating PTase with test compound for 60 minutes at room temperature, followed by addition of prothrombin for 6 minutes at room temperature. Next, the reaction was quenched by the addition of 100 μL of 20 mM EDTA. Activity of the thrombin (product) is then measured in the presence of 50 μL S2238 (250 μM final, H-D-Phe-Pip-Arg-pNA*Ac, DiaPharma) as substrate by measuring the change at 37° C. in OD405 nm for 5 minutes at 10 second intervals using a ThermoMax® Kinetic Microplate Reader.

The target of series [6] is T1, human factor Xa. Kind of series: Determination of factor Xa Ki (fluorogenic S2765). It counts as biochemical. As for the experimental part:
Compounds of the present invention may be prepared for assay by dissolving them in buffer to give solutions ranging in concentrations from 1 to 100 μM. In an assay to determine the inhibitory dissociation constant, Ki, for a given compound, a chromogenic or fluorogenic substrate of factor Xa would be added to a solution containing a test compound and factor Xa; the resulting catalytic activity of the enzyme is spectrophotometrically determined. This assay is well-known to those skilled in the art and is commonly used to determine antithrombotic activity.
For Ki determinations, the assay conditions were essentially the same as above except for the following. The concentration of factor Xa was 50 pM, and that of the substrate, in this case a fluorogenic S2765 (i.e. S2765 with AMC tag instead of pNA, California Peptide Research), was over the range of 10 to 500 μM. The test compound and substrate in HBSA buffer were incubated as above, and the reaction was initiated with enzyme-buffer. The data (steady-state velocity at various concentrations of the substrate and the inhibitors) of the competitive inhibition was analyzed using the methods described by Segel (Enzyme Kinetics, Wiley Interscience Publications, 1993). […]

Where [7] appears, read: 30 μg/kg+1, 60 μg/kg+2, 90 μg/kg+3 μg/kg/min.
[8] abbreviates: highest dose 90 μg/kg+3 μg/kg/min.

In general, IC50 refers to the point on the concentration scale where inhibition reaches its midpoint. A word on the Ki: it is the equilibrium dissociation constant of an inhibitor or competing ligand from its target. Read a low Ki as tighter binding.

Each structure is given as a SMILES string.

Regarding `C[C@@H]1CCC[C@H](C)N1CCCCCN1C(=O)C(c2cccc(C(=N)N)c2)Oc2ccccc21` (stereo partly drawn) [Example 2, 3-(4-5-[(2R,6S)-2,6-Dimethylhexahydro-1-pyridinyl]pentyl-3-oxo-3,4-dihydro-2H-1,4-benzoxazin-2-yl)-1-benzenecarboximidamide], it took 474 nM to reach half-maximal inhibition in the series with human trypsin (IC50). Also, on human factor Xa [1], the IC50 is 7 nM. Besides, the inhibition at 100 µM in series [2] was found to be 30%. For the same molecule, in the series on rabbit (setting [7]), the “net thrombus weight, dose dependence” value is reported as “reduced the net thrombus weight” and the “time to occlusion, dose dependence” value is “dose-dependently prolonged the time to occlusion”. In the series with rabbit (all 3 dose groups), the ACT entry is recorded as “only slight increases”. Moreover, in the series on rabbit (setting [8]), the “animals with no occlusive thrombus formation during the 120-minute test period” value was 4 out of 5, the “prolongation of PT” value amounted to 1.8 fold, the “prolongation of TT” value was found to be 1.5 fold and the “prolongation of aPTT” value turned out to be 5.4 fold. Moreover, the “prolongation of bleeding time” value with rabbit (setting [8]) was 2.5 fold. Moreover, the “time to occlusion (TTO)” value in the series on rabbit (highest dose 90 μg/kg+3 μg/kg/min, bolus via jugular vein + infusion 140 minutes, control 16.8±5.4) was 98.2 ± 21.8 min. The molecule also registered a net thrombus weight with rabbit (highest dose 90 μg/kg+3 μg/kg/min, control 56.4±4.3) of 21.3 ± 7.8 mg.
With `CC(=N)N1CC[C@H](Oc2ccc([C@H](Cc3ccc4ccc(C(=N)N)cc4c3)C(=O)O)cc2)C1` [DX-9065a, reference compound], the “concentration that causes 2-fold prolongation of baseline dPT” value was 1.4 µM in series [3], 2.5 µM with pooled plasma from dogs and 0.06 µM in series [4]. Moreover, the “concentration that causes 5-fold prolongation of baseline dPT” value came out at 21.8 µM in [3], 51.1 µM in the series on pooled plasma from dogs and 0.53 µM in series [4]. For the same molecule, the “concentration that causes 10-fold prolongation of baseline dPT” value is 96.8 μM in series [3], 118.6 μM with pooled plasma from dogs and 1.3 μM in series [4].
Take `C[C@@H]1CCC[C@H](C)N1CCCCCN1C(=O)C(c2cc(C(=N)N)ccc2O)Oc2ccccc21` (stereo partly drawn) [Example 5, 3-(4-5-[(2R,6S)-2,6-Dimethyltetrahydro-1(2H)-pyridinyl]pentyl-3-oxo-3,4-dihydro-2H-1,4-benzoxazin-2-yl)4-hydroxybenzenecarboximidamide]: the IC50 is 1030 nM at human thrombin, 380 nM in the series with human trypsin, under 1 nM at human factor Xa [1] and 0.17 nM in [5]. The inhibition at 100 µM in series [2] came out at 29%. Besides, the “concentration that causes 2-fold prolongation of baseline dPT” value in [3] was determined as 0.44 µM; with pooled plasma from dogs it was 0.84 µM; in series [4], 0.0069 µM. For the same molecule, the figures for the “concentration that causes 5-fold prolongation of baseline dPT” value (in series [3]; in the series with pooled plasma from dogs; in series [4]) were 0.97 µM, 1.2 µM and 0.063 µM, respectively. Moreover, the “concentration that causes 10-fold prolongation of baseline dPT” value in series [3] stood at 1.86 μM; in the series on pooled plasma from dogs, 1.81 μM; in [4] it was 0.157 μM.
`C[C@@H]1CCC[C@H](C)N1CCCCCN1C(=O)C(c2cccc(C(=N)N)c2)Sc2ccccc21` (stereo partly drawn) [Example 3, 3-(4-5-[(2R,6S)-2,6-Dimethylhexahydro-1-pyridinyl]pentyl-3-oxo-3,4-dihydro-2H-1,4-benzothiazin-2-yl)-1-benzenecarboximidamide]: the figures for the IC50 against human thrombin, with human trypsin and against human factor Xa [1] were 1780 nM, 782 nM and 108 nM, respectively. The inhibition at 100 µM in series [2] is 31%.
Take `C[C@@H]1CCC[C@H](C)N1CCCCCN1C(=O)[C@H](c2cc(C(=N)N)ccc2O)Oc2ccccc21` [Example 6, 3-((2S)-4-5-[(2R,6S)-2,6-Dimethyltetrahydro-1(2H)-pyridinyl]pentyl-3-oxo-3,4-dihydro-2H-1,4-benzoxazin-2-yl)-4-hydroxybenzenecarboximidamide]: the IC50 at human thrombin was determined as 1390 nM; with human trypsin, 750 nM; at human factor Xa [1], 3 nM. The molecule further showed an inhibition constant (Ki) at human factor Xa [6] of 0.076 nM. In addition, the inhibition at 100 µM in series [2] amounted to 37%.
